Results from paper PMC9757750 (Science Advances, 2022).

Biological target: LegA15 (Legionella pneumophila, UniProt Q5ZSR1)
Test: biochemical

LegA15, sequence (Q5ZSR1 1-471): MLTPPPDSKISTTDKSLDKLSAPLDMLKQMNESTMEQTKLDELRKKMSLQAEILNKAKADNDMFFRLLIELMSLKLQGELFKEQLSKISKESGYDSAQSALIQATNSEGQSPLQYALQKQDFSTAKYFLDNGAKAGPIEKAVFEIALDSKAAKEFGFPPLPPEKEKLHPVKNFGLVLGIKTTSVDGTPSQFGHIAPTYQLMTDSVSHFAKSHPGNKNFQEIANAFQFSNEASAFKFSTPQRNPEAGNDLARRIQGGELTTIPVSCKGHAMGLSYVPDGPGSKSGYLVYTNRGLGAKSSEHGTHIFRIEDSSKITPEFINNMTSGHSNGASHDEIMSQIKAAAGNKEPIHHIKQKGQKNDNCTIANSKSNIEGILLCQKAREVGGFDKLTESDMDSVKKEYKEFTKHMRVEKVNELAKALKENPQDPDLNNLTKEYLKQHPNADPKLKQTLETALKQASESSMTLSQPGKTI

## Nc1nc2c(ncn2[C@@H]2O[C@H](COP(=O)(O)OP(=O)(O)O)[C@@H](O)[C@H]2O)c(=O)[nH]1 [GDP]
  Kd: 20.5 µM

## Nc1nc2c(ncn2[C@@H]2O[C@H](COP(=O)(O)OP(=O)(O)OP(=O)(O)O)[C@@H](O)[C@H]2O)c(=O)[nH]1 [GTP]
  Kd: 1.38 µM
